The values that follow come from US20230407245A1, “Media and methods for establishing and maintaining early embryo-like cells” (BGI SHENZHEN GROUP HOLDINGS CO., LIMITED, priority 2020, published 2023).

This assay relates to primed human PSCs. Kind of assay: Conversion of primed human PSCs to ICLCs, RT-qPCR of preimplantation ICM markers. The following applies: for expression of preimplantation ICM markers (RT-qPCR) in ICLCs with a different dosage of one component, compared to primed human PSCs: H9, 4CL medium 1 with PD0325901 0.5 μM, TSA 20 nM, DZNep 5, 20 or 50 nM. In kind it is cell-based. The method, then:
All provided human PSCs were routinely maintained on Matrigel™ or Geltrex™ coated plates in mTeSR1 or E8 medium. Generally, cells were passaged every 4 to 5 days with 0.5 mM EDTA. For passaging, cells were washed with PBS once and treated with 0.5 mM EDTA for 5 mins. Then, EDTA was removed and cells were detached as small clumps using a Pasteur pipette with mTeSR1 or E8 medium. Primed human PSCs were grown in an incubator under normoxic conditions (37° C., 5% CO2).
One day before initiation of conversion, primed human PSCs were washed with PBS once and dissociated into single cells and plated at a density of 1,000 to 1,500 cells/cm 2 on feeder in mTeSR1 or E8 medium supplemented with 10 μM Y27632. Twenty-four hours later, culture medium was switched to 4CL medium 1. The culture medium was refreshed with the same medium every 24 hours. Colonies became round and domed-shape in 24 to 48 hours. Cells were passaged every 3 to 4 days. For passaging, cells were dissociated into single cells using TrypLE: 0.5 mM EDTA (1:1) and plated at a density of 1,000 to 1,500 cells/cm 2 on feeder (feeders were seeded on Geltrex™/Matrigel™ pre-treated plate) (FIG. 1). The ICLCs induction and maintenance can be conducted under hypoxic condition (37° C., 5% CO2, 5% O2), or normoxic condition (37° C., 5% CO2, 21% O2) (FIG. 34), preferably hypoxia condition.
Using the same procedures of example 1, except plating cells on 1% (v/v) Geltrex™ in DMEM-F12 (cat #) coated plates instead of on feeder cells.
Primed human PSCs were cultured following the same procedures of example 1. One day before initiation of the conversion, primed human PSCs were dissociated into single cells and plated 60,000 cells/well in Aggrewell™ 800 plates using mTeSR1 or E8 medium supplemented with 10 μM Y27632. Twenty-four hours later, culture medium was changed into 4CL medium 1, culture condition was then switched to hypoxic condition. Cells formed small spheres in 3 days. The spheres were then lifted and transferred to flasks (Greiner Bio-One, 658190) for suspension culture. Medium was refreshed daily. Cells were passaged every 4 to 5 days. For passaging, cells were dissociated into single cells using TrypLE: 0.5 mM EDTA (1:1), then cells were resuspended in 4CL medium 1 at a density of 150,000 cells/ml. The resuspended cells were added into flasks (Greiner Bio-One, 658190) for suspension culture. Cells formed small aggregates in 24 hours. Generally, cells were converted to ICLCs in approximately 3 weeks after initiation.
Same as example 1, but different dosages of either PD0325901, DZNep, or TSA were also used: PD0325901, 0.5 μM; TSA, 20 nM; DZNep, 5 nM, 20 nM or 50 nM.

Molecules are shown by their SMILES.

As to `O=C(NOC[C@H](O)CO)c1ccc(F)c(F)c1Nc1ccc(I)cc1F` [PD0325901], the “expression of preimplantation ICM markers (RT-qPCR) in ICLCs with a different dosage of one component, compared to primed human PSCs” value is “significantly induced”. Still for that read-out and setting: under `CC(/C=C/C(=O)NO)=C\[C@@H](C)C(=O)c1ccc(N(C)C)cc1` [TSA, trichostatin A] stands “significantly induced”.

Turning to `O=C1O[C@H]([C@@H](O)CO)C(O)=C1O` [L-ascorbic acid], where the note is “final concentration of 40 to 70 ng/mL”, the “expression levels of ICM specific genes such as DNMT3L, STELLA, DPPA5, KLF17” value was “potently increases”.

Turning to `Nc1nccc2c1ncn2[C@@H]1C=C(CO)[C@@H](O)[C@H]1O` [DZNep, 3-deazaneplanocin A], the “expression of preimplantation ICM markers (RT-qPCR) in ICLCs with a different dosage of one component, compared to primed human PSCs” value is “significantly induced”.
